Assay results published in the NIST ThermoML archive (doi:10.1016/j.jct.2006.07.018).

Assay: mn = molality of the nth substance listed, in mol/kg
Settings: 350 kPa, Liquid, Vibrating tube method

CSCC[C@H](N)C(=O)O [L-methionine] + O
mass density [kg/m3]
Settings	m1 = 0.0125	m1 = 0.025	m1 = 0.05	m1 = 0.0997	m1 = 0.1501	m1 = 0.1929
278.15 K	1000.87	1001.33	1002.43	1005.13	1007.08	1008.66
283.15 K	1000.6	1001.06	1002.07	1004.77	1006.7	1008.25
288.15 K	999.97	1000.44	1001.43	1004.07	1005.97	1007.5
298.15 K	997.89	998.35	999.32	1001.89	1003.72	1005.21
308.15 K	994.85	995.32	996.3	998.76	1000.54	1002.01
318.15 K	991.01	991.47	992.35	994.85	996.62	998.08
328.15 K	986.48	986.94	987.79	990.26	992	993.45
338.15 K	981.32	981.79	982.66	985.05	986.79	988.23
348.15 K	975.6	976.09	976.97	979.29	981.03	982.49
358.15 K	969.38	969.84	970.77	973.02	974.79	976.26
368.15 K	962.63	963.11	964.09	966.29	968.05	969.51
